In patent US7452908B2, “Amide derivatives” (Banyu Pharmaceutical Co., Ltd., priority 1999, dated 2008):

Target: T1, M3 receptor (Canis lupus familiaris, UniProt A0A8I3N190)
T1 construct: from tissue; host or cells: whole animal, male beagle dogs (in vivo, airway)
Assay: Antagonism to M3 receptor: bronchodilation in anesthetized dogs (methacholine provocation test)
Format: in vivo, beagle dogs
Details: inhalation of 1 mg/ml for 10 minutes, methacholine threshold four hours after administration
Protocol: The bronchodilation action of inhaled test compound was evaluated by measuring the compounds' inhibitory action on respiratory resistance-increasing reaction induced by a methacholine provocation test. For the experiment, 12 to 36 months old male beagle dogs (weighing 10-15 kg) were used. After being anesthetized by intravenous pentobarbital administration (30 mg/kg), the dogs were intubated cannulae in their trachea. After their respiration became stable, the cannulae were connected with Astograph (TCK-6100H, Chest) and a methacholine provocation test by 3 Hz oscillation method was conducted. […] The methacholine concentration at which the respiratory resistance increased to twice the initial value was recorded as the methacholine reaction threshold value. Before evaluating the test compounds, the methacholine reaction threshold value^1) under no drug treatment was measured at least twice at a week's interval, to select the dogs showing reproducible reaction.
The inhaling administration of each test compound (1 mg/ml) was conducted for 10 minutes under pentobarbital anesthetization (30 mg/kg, i.v.), with the nebulizer in the Astograph. […] The bronchodilator activity (shift value) of each tested compound was determined according to the following equation: […]

T1 sequence (A0A8I3N190 1-590): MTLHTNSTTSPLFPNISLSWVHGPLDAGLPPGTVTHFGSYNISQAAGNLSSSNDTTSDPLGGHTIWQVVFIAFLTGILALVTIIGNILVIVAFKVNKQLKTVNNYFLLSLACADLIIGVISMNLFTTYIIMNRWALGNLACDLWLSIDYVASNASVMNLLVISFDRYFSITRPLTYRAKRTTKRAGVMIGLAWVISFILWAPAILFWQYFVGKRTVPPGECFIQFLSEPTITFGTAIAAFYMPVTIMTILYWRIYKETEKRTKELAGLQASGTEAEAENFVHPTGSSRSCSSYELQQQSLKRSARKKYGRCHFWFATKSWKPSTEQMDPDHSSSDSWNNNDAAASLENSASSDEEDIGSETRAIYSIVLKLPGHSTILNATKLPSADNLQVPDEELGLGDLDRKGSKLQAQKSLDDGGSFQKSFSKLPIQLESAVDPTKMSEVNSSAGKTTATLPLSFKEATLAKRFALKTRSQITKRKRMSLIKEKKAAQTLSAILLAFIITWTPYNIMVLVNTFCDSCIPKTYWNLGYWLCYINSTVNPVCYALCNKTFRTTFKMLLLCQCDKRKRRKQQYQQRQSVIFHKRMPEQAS

Compound: CC[N+]1(CC)CCC[C@H](CNC(=O)[C@H]2CCCN2C(=O)[C@@H]2C[C@@H](O)CN2C(=O)CC(c2ccccc2)(c2ccccc2)c2ccccc2)C1.[Cl-] [Example 133, (3R)-1,1-diethyl-3-({({(2R)-1-({(2S,4R)-4-hydroxy-1-(3,3,3-triphenylpropanoyl)-2-pyrrolidinyl}carbonyl)-2-pyrrolidinyl}carbonyl)amino}methyl)piperidinium chloride]
- Shift (fold) Airway constriction M3: 20.2 fold
